Molecular target: T1, human calcium receptor (Homo sapiens, UniProt P41180)
T1 construct: expressed in transfected cells; host or cells: HEK 293 4.0-7
T1 sequence (P41180 20-1078): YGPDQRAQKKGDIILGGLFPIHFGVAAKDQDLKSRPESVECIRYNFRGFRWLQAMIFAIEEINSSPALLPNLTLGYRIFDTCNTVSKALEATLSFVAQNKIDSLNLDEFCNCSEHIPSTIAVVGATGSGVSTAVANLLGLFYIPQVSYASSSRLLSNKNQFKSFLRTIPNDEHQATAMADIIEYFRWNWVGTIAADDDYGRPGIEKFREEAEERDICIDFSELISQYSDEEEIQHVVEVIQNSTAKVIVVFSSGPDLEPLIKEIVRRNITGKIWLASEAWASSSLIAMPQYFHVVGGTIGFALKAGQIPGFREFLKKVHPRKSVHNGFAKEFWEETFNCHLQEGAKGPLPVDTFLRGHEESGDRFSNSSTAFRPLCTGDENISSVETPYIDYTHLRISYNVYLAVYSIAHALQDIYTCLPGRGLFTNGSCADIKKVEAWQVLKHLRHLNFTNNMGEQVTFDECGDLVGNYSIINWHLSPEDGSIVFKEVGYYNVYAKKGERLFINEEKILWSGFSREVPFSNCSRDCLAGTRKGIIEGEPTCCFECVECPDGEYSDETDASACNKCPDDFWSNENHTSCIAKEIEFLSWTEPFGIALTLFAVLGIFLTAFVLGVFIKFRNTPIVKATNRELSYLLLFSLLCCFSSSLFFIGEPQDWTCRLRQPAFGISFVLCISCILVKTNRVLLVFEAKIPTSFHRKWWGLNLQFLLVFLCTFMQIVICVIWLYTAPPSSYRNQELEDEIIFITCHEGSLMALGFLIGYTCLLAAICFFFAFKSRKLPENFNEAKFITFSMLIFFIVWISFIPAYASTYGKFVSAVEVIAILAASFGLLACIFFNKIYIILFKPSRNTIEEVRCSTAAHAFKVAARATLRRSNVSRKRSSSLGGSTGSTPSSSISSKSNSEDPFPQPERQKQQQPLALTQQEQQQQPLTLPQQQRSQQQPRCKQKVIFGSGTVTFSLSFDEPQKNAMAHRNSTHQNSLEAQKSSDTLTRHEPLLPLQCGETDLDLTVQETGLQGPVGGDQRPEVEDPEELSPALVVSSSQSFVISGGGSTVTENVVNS
Test: Calcium Receptor Inhibitor Assay (block of intracellular Ca2+ increase elicited by extracellular Ca2+, fluo-3)
Format: cell-based
Set-up: key: Compounds having an IC50 greater than 30 uM were considered to be inactive; Compounds having an IC50 greater than 30 uM were considered to be inactive
Conditions: HEK 293 4.0-7 cells stably expressing the human calcium receptor; at the concentrations used
Protocol: (I) Calcium Receptor Inhibitor Assay
Calcilytic activity was measured by determining the IC50 of the test compound for blocking increases of intracellular Ca^2+ elicited by extracellular Ca^2+ in HEK 293 4.0-7 cells stably expressing the human calcium receptor. HEK 293 4.0-7 cells were constructed as described by Rogers et al., J. Bone Miner. Res. 10 Suppl. 1:3483, 1995 (hereby incorporated by reference herein). Intracellular Ca^2+ increases were elicited by increasing extracellular Ca^2+ from 1 to 1.75 mM. Intracellular Ca^2+ was measured using fluo-3, a fluorescent calcium indicator.
The procedure was as follows:
1. Cells were maintained in T-150 flasks in selection media (DMEM supplemented with 10% fetal bovine serum and 200 ug/mL hygromycin B), under 5% CO2:95% air at 37° C. and were grown up to 90% confluency.
2. The medium was decanted and the cell monolayer was washed twice with phosphate-buffered saline (PBS) kept at 37° C. After the second wash, 6 mL of 0.02% EDTA in PBS was added and incubated for 4 minutes at 37° C. Following the incubation, cells were dispersed by gentle agitation.
3. Cells from 2 or 3 flasks were pooled and pelleted (100×g). The cellular pellet was resuspended in 10-15 mL of SPF-PCB+ and pelleted again by centrifugation. This washing was done twice.
Sulfate- and phosphate-free parathyroid cell buffer (SPF-PCB) contains 20 mM Na-Hepes, pH 7.4, 126 mM NaCl, 5 mM KCl, and 1 mM MgCl2. SPF-PCB was made up and stored at 4° C. On the day of use, SPF-PCB was supplemented with 1 mg/mL of D-glucose and 1 mM CaCl2 and then split into two fractions. To one fraction, bovine serum albumin (BSA; fraction V, ICN) was added at 5 mg/mL (SPF-PCB+). This buffer was used for washing, loading and maintaining the cells. The BSA-free fraction was used for diluting the cells in the cuvette for measurements of fluorescence.
4. The pellet was resuspended in 10 mL of SPF-PCB+ containing 2.2 uM fluo-3 (Molecular Probes) and incubated at room temperature for 35 minutes.
5. Following the incubation period, the cells were pelleted by centrifugation. The resulting pellet was washed with SPF-PCB+. After this washing, cells were resuspended in SPF-PCB+ at a density of 1-2×10^6 cells/mL.
6. For recording fluorescent signals, 300 uL of cell suspension were diluted in 1.2 mL of SPF buffer containing 1 mM CaCl2 and 1 mg/mL of D-glucose. Measurements of fluorescence were performed at 37° C. with constant stirring using a spectrofluorimeter. Excitation and emission wavelengths were measured at 485 and 535 nm, respectively. To calibrate fluorescence signals, digitonin (5 mg/mL in ethanol) was added to obtain Fmax, and the apparent Fmin was determined by adding Tris-EGTA (2.5 M Tris-Base, 0.3 M EGTA). The concentration of intracellular calcium was calculated using the following equation:
Intracellular calcium=(F−Fmin/Fmax)×Kd; where Kd=400 nM.
7. To determine the potential calcilytic activity of test compounds, cells were incubated with test compound (or vehicle as a control) for 90 seconds before increasing the concentration of extracellular Ca^2+ from 1 to 2 mM. Calcilytic compounds were detected by their ability to block, in a concentration-dependent manner, increases in the concentration of intracellular Ca^2+ elicited by extracellular Ca^2+.
In general, those compounds having lower IC50 values in the Calcium Receptor Inhibitor Assay are more preferred compounds. […] The present examples were tested except for Examples 11, 20, 28, 44 and 107.

Structure (SMILES) | IC50 for blocking increases of intracellular Ca2+ elicited by extracellular Ca2+ (calcilytic activity)
COc1ccccc1-c1nc(C)c(-c2cccs2)c(=O)n1CCc1ccccc1 [Example 100, 6-Methyl-2-[2-(methyloxy)phenyl]-3-(2-phenylethyl)-5-(2-thienyl)-4(3H)-pyrimidinone] | inactive
CCc1c(N2CCCCC2)nc(-c2cccc(F)c2O)n(CCc2cccc(F)c2)c1=O [Example 27, 5-Ethyl-2-(3-fluoro-2-hydroxyphenyl)-3-[2-(3-fluorophenyl)ethyl]-6-(1-Piperidinyl)-4(3H)-pyrimidinone] | inactive
Cc1nc(-c2ccccc2O)n(CCc2ccccc2)c(=O)c1-c1ccc(CN)s1 [Example 215, 5-[5-(Aminomethyl)-2-thienyl]-2-(2-hydroxyphenyl)-6-methyl-3-(2-phenylethyl)-4(3H)-pyrimidinone] | inactive
Cc1nc(-c2ccccc2O)n(CCc2ccccc2)c(=O)c1N [Example 123, 5-Amino-2-(2-hydroxyphenyl)-6-methyl-3-(2-phenylethyl)-4(3H)-pyrimidinone] | inactive
Cc1nc(-c2ccccc2O)n(CCc2ccccc2)c(=O)c1-c1ccc(-c2nnn[nH]2)s1 [Example 214, 2-(2-hydroxyphenyl)-6-methyl-3-(2-phenylethyl)-5-[5-(1H-tetrazol-5-yl)-2-thienyl]-4(3H)-pyrimidinone] | inactive
Cc1nc(-c2ccccc2O)n(CCc2ccccc2)c(=O)c1NC(=O)C(C)C [Example 127, N-[2-(2-Hydroxyphenyl)-4-methyl-6-oxo-1-(2-phenylethyl)-1,6-dihydro-5-pyrimidinyl]-2-methylpropanamide] | inactive
CNCc1ccc(-c2c(C)nc(-c3ccccc3O)n(CCc3ccccc3)c2=O)s1 [Example 216, 2-(2-hydroxyphenyl)-6-methyl-5-{5-[(methylamino)methyl]-2-thienyl}-3-(2-phenylethyl)-4(3H)-pyrimidinone] | inactive
CCc1c(CCC2CCCCC2)nc(-c2cccc(F)c2O)n(CCc2ccccc2F)c1=O [Example 46] | inactive
